Tests used:
Assay in all cases: cells
[1] = tested on: COR-L23; type: functional, cell-based, Homo sapiens; details: Homo sapiens, COR-L23;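 further: cell viability assay measuring how strongly compounds suppress growth of COR-L23 cells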
Description: SANGER: Inhibition of human COR-L23 cell growth in a cell viability assay.

[2] = tested on: Ca-Ski; type: functional, cell-based, Homo sapiens; details: Homo sapiens, Ca-Ski;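 further: cell viability assay measuring inhibition of Ca-Ski cell growth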
Description: SANGER: Inhibition of human Ca-Ski cell growth in a cell viability assay.

[3] = tested on: Capan-2; type: functional, cell-based, Homo sapiens; details: Homo sapiens, Capan-2;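 further: Capan-2 cell growth inhibition, read out with a viability assay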
Description: SANGER: Inhibition of human Capan-2 cell growth in a cell viability assay.

[4] = tested on: DOK; type: functional, cell-based, Homo sapiens; details: Homo sapiens, DOK;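 further: cell viability assay read-out, values reflect inhibition of cell growth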
Description: SANGER: Inhibition of human DOK cell growth in a cell viability assay.

[5] = tested on: H4; type: functional, cell-based, Homo sapiens; details: Homo sapiens, H4
Description: SANGER: Inhibition of human H4 cell growth in a cell viability assay.

[6] = tested on: HCC1569; type: functional, cell-based, Homo sapiens; details: Homo sapiens, HCC1569;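 further: growth inhibition of human HCC1569 cells, read out with a cell viability assay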
Description: SANGER: Inhibition of human HCC1569 cell growth in a cell viability assay.

[7] = tested on: HSC-2; type: functional, cell-based, Homo sapiens; details: Homo sapiens, HSC-2;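 further: growth inhibition of human HSC-2 cells, read out by a cell viability assay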
Description: SANGER: Inhibition of human HSC-2 cell growth in a cell viability assay.

[8] = tested on: HT-1080; type: functional, cell-based, Homo sapiens; details: Homo sapiens, HT-1080
Description: SANGER: Inhibition of human HT-1080 cell growth in a cell viability assay.

[9] = tested on: HuO-3N1; type: functional, cell-based, Homo sapiens; details: Homo sapiens, HuO-3N1;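 further: cell viability readout used to measure how strongly compounds suppress proliferation of human HuO-3N1 cells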
Description: SANGER: Inhibition of human HuO-3N1 cell growth in a cell viability assay.

[10] = tested on: HuP-T4; type: functional, cell-based, Homo sapiens; details: Homo sapiens, HuP-T4;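 further: cell viability assay measuring how much HuP-T4 cell growth is inhibited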
Description: SANGER: Inhibition of human HuP-T4 cell growth in a cell viability assay.

[11] = tested on: KYSE-180; type: functional, cell-based, Homo sapiens; details: Homo sapiens, KYSE-180;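 further: growth inhibition of KYSE-180 cells, read out with a cell viability assay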
Description: SANGER: Inhibition of human KYSE-180 cell growth in a cell viability assay.

[12] = tested on: MCF7; type: functional, cell-based, Homo sapiens; details: Homo sapiens, MCF7;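 further: growth inhibition of human MCF7 cells, read out with a cell viability assay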
Description: SANGER: Inhibition of human MCF7 cell growth in a cell viability assay.

[13] = tested on: MDA-MB-361; type: functional, cell-based, Homo sapiens; details: Homo sapiens, MDA-MB-361
[14] = tested on: MEL-HO; type: functional, cell-based, Homo sapiens; details: Homo sapiens, MEL-HO
Description: SANGER: Inhibition of human MEL-HO cell growth in a cell viability assay.

[15] = tested on: NCI-H1563; type: functional, cell-based, Homo sapiens; details: Homo sapiens, NCI-H1563;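 further: growth inhibition of human NCI-H1563 cells, read out with a cell viability assay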
Description: SANGER: Inhibition of human NCI-H1563 cell growth in a cell viability assay.

[16] = tested on: NCI-H2029; type: functional, cell-based, Homo sapiens; details: Homo sapiens, NCI-H2029;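 further: Read-out is a viability assay on the cultured cells, and IC50 is the concentration that suppresses cell growth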
Description: SANGER: Inhibition of human NCI-H2029 cell growth in a cell viability assay.

[17] = tested on: NCI-H2228; type: functional, cell-based, Homo sapiens; details: Homo sapiens, NCI-H2228;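 further: growth inhibition of human NCI-H2228 cells, read out by a cell viability assay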
Description: SANGER: Inhibition of human NCI-H2228 cell growth in a cell viability assay.

[18] = tested on: NCI-H630; type: functional, cell-based, Homo sapiens; details: Homo sapiens, NCI-H630;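 further: growth inhibition of NCI-H630 cells, read out with a cell viability assay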
Description: SANGER: Inhibition of human NCI-H630 cell growth in a cell viability assay.

[19] = tested on: NUGC-3; type: functional, cell-based, Homo sapiens; details: Homo sapiens, NUGC-3;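 further: growth inhibition of human NUGC-3 cells, read out with a cell viability assay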
Description: SANGER: Inhibition of human NUGC-3 cell growth in a cell viability assay.

[20] = tested on: RERF-LC-MS; type: functional, cell-based, Homo sapiens; details: Homo sapiens, RERF-LC-MS;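 further: growth inhibition of human RERF-LC-MS cells, read out by a cell viability assay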
Description: SANGER: Inhibition of human RERF-LC-MS cell growth in a cell viability assay.

[21] = tested on: RT-112; type: functional, cell-based, Homo sapiens; details: Homo sapiens, RT-112
Description: SANGER: Inhibition of human RT-112 cell growth in a cell viability assay.

[22] = tested on: SK-HEP1; type: functional, cell-based, Homo sapiens, SK-HEP-1; details: Homo sapiens, SK-HEP1;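 further: cell viability readout used to quantify reduction in proliferation of human SK-HEP-1 cells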
Description: SANGER: Inhibition of human SK-HEP-1 cell growth in a cell viability assay.

[23] = tested on: SK-MEL3; type: functional, cell-based, Homo sapiens, SK-MEL-3; details: Homo sapiens, SK-MEL3;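 further: growth inhibition of human SK-MEL-3 cells, read out with a cell viability assay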
Description: SANGER: Inhibition of human SK-MEL-3 cell growth in a cell viability assay.

[24] = tested on: SK-OV-3; type: functional, cell-based, Homo sapiens; details: Homo sapiens, SK-OV-3;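 further: growth inhibition of SK-OV-3 human cells, read out with a cell viability assay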
Description: SANGER: Inhibition of human SK-OV-3 cell growth in a cell viability assay.

[25] = tested on: SNU-387; type: functional, cell-based, Homo sapiens; details: Homo sapiens, SNU-387
Description: SANGER: Inhibition of human SNU-387 cell growth in a cell viability assay.

[26] = tested on: SW1417; type: functional, cell-based, Homo sapiens; details: Homo sapiens, SW1417;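 further: growth inhibition of human SW1417 cells, read out with a cell viability assay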
Description: SANGER: Inhibition of human SW1417 cell growth in a cell viability assay.

[27] = tested on: TCC-SUP; type: functional, cell-based, Homo sapiens; details: Homo sapiens, TCC-SUP;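 further: growth inhibition of TCC-SUP cells, read out with a cell viability assay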
Description: SANGER: Inhibition of human TCCSUP cell growth in a cell viability assay.

[28] = tested on: 8505C; type: functional, cell-based, Homo sapiens; details: Homo sapiens, 8505C
Description: SANGER: Inhibition of human 8505C cell growth in a cell viability assay.

[29] = tested on: BCPAP; type: functional, cell-based, Homo sapiens; details: Homo sapiens, BCPAP;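 further: growth inhibition of BCPAP cells, read out in a cell viability assay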
Description: SANGER: Inhibition of human BCPAP cell growth in a cell viability assay.

[30] = tested on: C32; type: functional, cell-based, Homo sapiens; details: Homo sapiens, C32;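 further: cell viability assay, with IC50 reflecting inhibition of C32 cell growth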
Description: SANGER: Inhibition of human C32 cell growth in a cell viability assay.

[31] = tested on: CAL-62; type: functional, cell-based, Homo sapiens; details: Homo sapiens, CAL-62;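 further: growth inhibition of CAL-62 cells, read out with a cell viability assay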
Description: SANGER: Inhibition of human CAL-62 cell growth in a cell viability assay.

[32] = tested on: VMRC-RCZ; type: functional, cell-based, Homo sapiens; details: Homo sapiens, VMRC-RCZ;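 further: growth inhibition measured with a cell viability assay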
Description: SANGER: Inhibition of human VMRC-RCZ cell growth in a cell viability assay.

[33] = tested on: HMV-2 cell line; type: functional, cell-based, Homo sapiens; details: Homo sapiens, HMV-2;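 further: growth inhibition of HMV-II cells, read out with a cell viability assay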
Description: SANGER: Inhibition of human HMV-II cell growth in a cell viability assay.

[34] = tested on: J82; type: functional, cell-based, Homo sapiens; details: Homo sapiens, J82;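 further: growth inhibition of J82 cells, read out with a cell viability assay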
Description: SANGER: Inhibition of human J82 cell growth in a cell viability assay.

[35] = tested on: MKN-45; type: functional, cell-based, Homo sapiens; details: Homo sapiens, MKN-45;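 further: growth inhibition of human MKN-45 cells, measured with a cell viability assay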
Description: SANGER: Inhibition of human MKN45 cell growth in a cell viability assay.

[36] = tested on: NCI-H1703; type: functional, cell-based, Homo sapiens; details: Homo sapiens, NCI-H1703;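 further: growth inhibition of NCI-H1703 cells, read out via a cell viability assay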
Description: SANGER: Inhibition of human NCI-H1703 cell growth in a cell viability assay.

[37] = tested on: SK-MEL-24; type: functional, cell-based, Homo sapiens; details: Homo sapiens, SK-MEL-24;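 further: growth inhibition read out by a cell viability assay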
Description: SANGER: Inhibition of human SK-MEL-24 cell growth in a cell viability assay.

[38] = tested on: A2058; type: functional, cell-based, Homo sapiens; details: Homo sapiens, A2058;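 further: reduction of A2058 cell growth, read out with a viability assay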
Description: SANGER: Inhibition of human A2058 cell growth in a cell viability assay.

[39] = tested on: ACHN; type: functional, cell-based, Homo sapiens; details: Homo sapiens, ACHN;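 further: cell viability read-out used to gauge how strongly growth of human ACHN cells is suppressed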
Description: SANGER: Inhibition of human ACHN cell growth in a cell viability assay.

[40] = tested on: UACC-893; type: functional, cell-based, Homo sapiens; details: Homo sapiens, UACC-893
Description: SANGER: Inhibition of human UACC-893 cell growth in a cell viability assay.

[41] = tested on: SIMA; type: functional, cell-based, Homo sapiens; details: Homo sapiens, SIMA;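 further: growth inhibition of SIMA cells, measured with a cell viability readout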
Description: SANGER: Inhibition of human SIMA cell growth in a cell viability assay.

Structure (SMILES) | IC50 [1] [µM] | IC50 [4] [µM] | IC50 [5] [µM] | IC50 [7] [µM] | IC50 [8] [µM] | IC50 [9] [µM] | IC50 [11] [µM] | IC50 [13] [µM] | IC50 [14] [µM] | IC50 [15] [µM] | IC50 [16] [µM] | IC50 [17] [µM] | IC50 [18] [µM] | IC50 [20] [µM] | IC50 [21] [µM] | IC50 [22] [µM] | IC50 [25] [µM] | IC50 [27] [µM] | IC50 [28] [µM] | IC50 [29] [µM] | also measured
Cn1cnc2c(F)c(Nc3ccc(Br)cc3Cl)c(C(=O)NOCCO)cc21 [SELUMETINIB] | 3.96 | 0.147 | > 4 | > 4 | 2.43 | > 4 | > 4 | > 4 | 0.139 | > 4 | > 4 | > 4 | > 4 | > 4 | 2.26 | 2.29 | > 4 | > 4 | > 4 | 2.13 | IC50 [2]: > 4 µM; IC50 [3]: > 4 µM; IC50 [6]: > 4 µM; IC50 [10]: 0.195 µM; IC50 [12]: > 4 µM; IC50 [19]: 1.2 µM; IC50 [23]: 1.95 µM; IC50 [24]: > 4 µM; IC50 [26]: > 4 µM; IC50 [30]: 0.0982 µM; IC50 [31]: 1.52 µM; IC50 [32]: > 4 µM
Cc1cn(-c2cc(NC(=O)c3ccc(C)c(Nc4nccc(-c5cccnc5)n4)c3)cc(C(F)(F)F)c2)cn1 [NILOTINIB] | > 2 | > 2 | > 2 | > 2 | > 2 | > 2 | > 2 | > 2 | > 2 | > 2 | > 2 | > 2 | > 2 | > 2 | > 2 | > 2 | > 2 | > 2 | > 2 | > 2 | IC50 [2]: > 2 µM; IC50 [3]: > 2 µM; IC50 [6]: > 2 µM; IC50 [33]: 0.749 µM; IC50 [10]: > 2 µM; IC50 [34]: > 2 µM; IC50 [12]: > 2 µM; IC50 [35]: > 2 µM; IC50 [36]: 1.19 µM; IC50 [19]: > 2 µM; IC50 [37]: > 2 µM; IC50 [23]: > 2 µM; IC50 [24]: > 2 µM; IC50 [26]: > 2 µM; IC50 [38]: > 2 µM; IC50 [39]: > 2 µM; IC50 [30]: > 2 µM; IC50 [31]: > 2 µM; IC50 [40]: > 2 µM; IC50 [32]: > 2 µM
CCN(CC)CCCCNc1ncc2cc(-c3cc(OC)cc(OC)c3)c(NC(=O)NC(C)(C)C)nc2n1 [PD-173074] | > 2 | > 2 | > 2 | > 2 | > 2 | 0.547 | > 2 | > 2 | > 2 | > 2 | > 2 | > 2 | > 2 | > 2 | 0.547 | > 2 | > 2 | > 2 | > 2 | > 2 | IC50 [2]: > 2 µM; IC50 [3]: > 2 µM; IC50 [6]: > 2 µM; IC50 [33]: > 2 µM; IC50 [10]: > 2 µM; IC50 [34]: > 2 µM; IC50 [12]: > 2 µM; IC50 [35]: > 2 µM; IC50 [19]: > 2 µM; IC50 [37]: > 2 µM; IC50 [23]: > 2 µM; IC50 [24]: > 2 µM; IC50 [26]: > 2 µM; IC50 [38]: > 2 µM; IC50 [39]: > 2 µM; IC50 [30]: > 2 µM; IC50 [31]: > 2 µM; IC50 [40]: > 2 µM; IC50 [32]: > 2 µM
COc1cc2c(Nc3ccc(NC(=O)c4ccccc4)cc3)ncnc2cc1OCCCN1CCOCC1 | > 4 | > 4 | 1.82 | > 4 | > 4 | > 4 | > 4 | > 4 | > 4 | > 4 | > 4 | > 4 | > 4 | > 4 | 2.66 | > 4 | > 4 | > 4 | > 4 | > 4 | IC50 [2]: > 4 µM; IC50 [3]: > 4 µM; IC50 [6]: > 4 µM; IC50 [33]: > 4 µM; IC50 [10]: > 4 µM; IC50 [34]: > 4 µM; IC50 [12]: > 4 µM; IC50 [35]: > 4 µM; IC50 [19]: 3.85 µM; IC50 [37]: > 4 µM; IC50 [23]: > 4 µM; IC50 [24]: > 4 µM; IC50 [26]: > 4 µM; IC50 [38]: > 4 µM; IC50 [39]: > 4 µM; IC50 [30]: 3.83 µM; IC50 [31]: > 4 µM; IC50 [40]: > 4 µM; IC50 [32]: > 4 µM
CN(C)C(=N)NC(=N)N [METFORMIN] | > 20000 | 4250 | > 20000 | 12100 | > 20000 | 7800 | 9060 | > 20000 | 8840 | 8610 | 14800 | > 20000 | > 20000 | 14400 | > 20000 | > 20000 | > 20000 | 4010 | 15400 | > 20000 | IC50 [2]: > 20000 µM; IC50 [34]: 12900 µM; IC50 [35]: > 20000 µM; IC50 [36]: 17300 µM; IC50 [37]: > 20000 µM; IC50 [38]: > 20000 µM; IC50 [39]: > 20000 µM; IC50 [30]: > 20000 µM; IC50 [31]: > 20000 µM; IC50 [40]: 9970 µM
CC1(C)CNc2cc(NC(=O)c3cccnc3NCc3ccncc3)ccc21 [MOTESANIB] | > 2 | > 2 | > 2 | > 2 | > 2 | > 2 | > 2 | > 2 | > 2 | > 2 | > 2 | > 2 | > 2 | > 2 | 1.59 | > 2 | > 2 | > 2 | > 2 | > 2 | IC50 [2]: > 2 µM; IC50 [3]: > 2 µM; IC50 [6]: > 2 µM; IC50 [33]: > 2 µM; IC50 [10]: > 2 µM; IC50 [34]: > 2 µM; IC50 [12]: > 2 µM; IC50 [35]: > 2 µM; IC50 [19]: > 2 µM; IC50 [37]: > 2 µM; IC50 [23]: > 2 µM; IC50 [24]: > 2 µM; IC50 [26]: > 2 µM; IC50 [38]: > 2 µM; IC50 [39]: > 2 µM; IC50 [30]: > 2 µM; IC50 [31]: > 2 µM; IC50 [40]: > 2 µM; IC50 [32]: > 2 µM
CC(C)c1ccccc1Cc1cc(C(=O)Nc2ccc(S(=O)(=O)c3ccccc3C(C)(C)C)cc2)c(O)c(O)c1O | 0.591 | 1.34 | 0.408 | 0.664 | 0.256 | 2.03 | 0.185 | 0.226 | 0.0882 | 0.124 | 14.4 | 0.662 | 0.808 | 0.0352 | 0.535 | 1.51 | 0.248 | 0.361 | 0.221 | 0.242 | IC50 [3]: 6.04 µM; IC50 [6]: 4.88 µM; IC50 [33]: 0.309 µM; IC50 [10]: 0.543 µM; IC50 [34]: 1.13 µM; IC50 [12]: 0.337 µM; IC50 [35]: 0.338 µM; IC50 [36]: 0.217 µM; IC50 [19]: 1.15 µM; IC50 [41]: 0.664 µM; IC50 [37]: 0.41 µM; IC50 [23]: 0.693 µM; IC50 [24]: 0.527 µM; IC50 [26]: 1.91 µM; IC50 [38]: 0.367 µM; IC50 [39]: 0.149 µM; IC50 [30]: 2.02 µM; IC50 [31]: 0.308 µM; IC50 [40]: 1.43 µM; IC50 [32]: 7.75 µM
